A short description of this assay: Efficacy on a mouse model of incisional pain, mechanical pain threshold (PWT). The conditions noted are these: intravenous. The class given is in vivo. An excerpt:
Bioactivity Test 3: Efficacy of the Compound on a Mouse Model of Incisional Pain
Model establishment: Through isoflurane anesthesia and routine disinfection, a 0.5 cm longitudinal skin incision extending to the toe was made with a blade on the plantar surface of the left hindfoot about 0.2 cm distal to the joint; and the plantar muscle was separated, slightly elevated, and then incised longitudinally, taking care not to disrupt the muscle origin. The incision was sutured horizontally and interruptedly with 5-0 nylon thread (2 sutures).
Solvents: A solvent for the test compound was 5% DMSO+10% Solutol+85% Saline, and a solvent for a positive compound TRV-130 was 10% ethanol+10% cremophor+80% water. […]
Mechanical pain threshold measurement: Before modeling, a pre-modeling mechanical pain threshold was measured. At 2.5 h after modeling, a pre-administration mechanical pain threshold was measured. Oral administration was carried out after the measurement, and a mechanical pain threshold was measured at 2 h after the administration. […] Each animal was measured three times at intervals of 3-5 minutes, and an average value was calculated.
Data analysis: Relevant data was organized in Office Excel 2013 and GraphPad Prism 6.0. Data was expressed as Mean±SEM (standard error). […]

The source of these data is patent publication US20260356823A1, “SODIUM CHANNEL REGULATOR AND USE THEREOF” (SHANGHAI HUILUN PHARMACEUTICAL CO., LTD., priority 2022, published 2026).

Structures are written as SMILES.

`COc1ccsc1CNCC[C@@]1(c2ccccn2)CCOC2(CCCC2)C1` [TRV-130]: the PWT after modeling (TRV-130 0.5 mg/kg group, after modeling, pre-administration, 2.5 h after modeling) came to 5.40 g. Besides, the “PWT 2 h after administration” value (TRV-130 0.5 mg/kg, 2 h after administration) came to 8.94 g.
